According to US5576290A, “Compositions and methods for the diagnosis and treatment of psychogenic erectile dysfunction” (Competitive Technologies, Inc., priority 1994, dated 1996):
Values belong to the molecule of their own block, whether it stands above or below them. Bridge positions count the residues as written; N and C are the ends. Square brackets hold non-standard residues; d marks the D form. Ends that are not written are not given here. Peptide text beside a SMILES is read from it. Nle = CCCC[C@H](N)C(=O)O

Tests used:
[1] = test system: human volunteers; assay: Erectile response after subcutaneous injection of peptide in human volunteers; format: in vivo
Experimental: The peptides described herein were prepared by sterile methods to a final concentration of 10 mg of peptide per ml of physiological saline. In addition to a full dose providing 10 mg of the peptide to the individual, doses of 0.1 to 0.3 ml (providing 1 mg to 3 mg of the peptide to each individual) of this stock material were also injected into volunteers, with a dose of 0.1 to 0.2 ml being the most often used dosage.
The onset of erection occurred about 1 to 2 hours after injection. […] A dose of 3.75 mg given to volunteers produced a long lasting erection of 4 to 6 hour duration. […] In some, this discomfort was considerable. […] Accordingly, although dosages of from about 1.0 mg to about 10.0 mg show the desired activity according to the present invention, it is preferred that the lower ranges of dosage which bring about the desired erection without undesirable side effects be used. Accordingly, it is preferred that dosages of about 1.5 mg to 2.5 mg of peptide be provided when the route of administration is subcutaneous or intramuscular. With other routes of administration, this range may require adjustment, however, it is still preferred that the lower range of adjusted effective dosages for the selected route of administration be used.

[2] = test system: patients; settings: cited from earlier work
[3] = test system: men; settings: oral, a few hundred men treated for depression, early 1980s; cited from earlier work
[4] = injection, alone or combined with phentolamine

stomach discomfort ([1]; 2.5 mg and 1.25 mg doses): No stomach discomfort was experienced
Molecule: CCCC[C@H](NC(C)=O)C(=O)N[C@H]1CC(=O)NCCCC[C@@H](C(=O)NCC(N)=O)NC(=O)[C@H](Cc2c[nH]c3ccccc23)NC(=O)[C@H](CCCNC(=N)N)NC(=O)[C@@H](Cc2ccccc2)NC(=O)[C@H](Cc2c[nH]cn2)NC1=O (Ac-[Nle]DH[dF]RWKG-NH2; lactam 2-7)
duration of erection (sustained intermittently) ([1]; 1.25 mg dose): up to 6 hours | induction of erection ([1]; 1.25 mg dose): induced an erection | onset of erection ([1]; 1.25 mg dose, compared with 2.5 mg): took longer to initially occur | time to erection following administration ([1]; 2.5 mg): ≤ 60 min

Molecule: COc1ccc(Cc2nccc3cc(OC)c(OC)cc23)cc1OC [papaverine]
share of patients in whom erection is induced [2, 4]: about 70% | side effects [2, 4]: pain, ecchymosis, and occasional episodes of priapism

Molecule: O=c1n(CCCN2CCN(c3cccc(Cl)c3)CC2)nc2ccccn12 [trazodone]
erections as unexpected effect [3]: prolonged and painful erections

Molecule: vasoactive intestinal peptide (HSDAVFTDNYTRLRKQMAVKKYLNSILN; ends and bridges not checked; UniProt P01282 125-152, looked up)
induction of full erection necessary for intercourse ([2]; intrapenile injections, trials): proven ineffective
